Source: patent US12281058B2, “Manganese catalysts and their use in hydrogenation of ketones” (priority 2019, dated 2025)
Where two headings read alike, the source gives them in different places.

Assays:
[1] = Ketone hydrogenation, general procedure (vial); conditions: 2′,6′-dichloro-3′-fluoroacetophenone, 0.1 mol % catalyst, 50 °C, 16 h
[2] = Ketone hydrogenation, general procedure (vial); conditions: 4′-chloropropiophenone, 0.1 mol % catalyst, 50 °C, 16 h
[3] = Ketone hydrogenation, general procedure (vial); conditions: propiophenone; 0.001 equiv. catalyst, 50 °C, 16 h, 50 bar H2, K2CO3, ethanol; chiral HPLC, (S)
[4] = Ketone hydrogenation, general procedure (vial); conditions: 4′-methoxypropiophenone, 0.001 equiv. catalyst, 50 °C, 16 h
[5] = Ketone hydrogenation, general procedure (vial); conditions: isobutyrophenone; 0.001 equiv. catalyst, 50 °C, 16 h, 50 bar H2; chiral HPLC, (S)
[6] = Hydrogenation of acetophenone, microwave vials in autoclave (vial method); conditions: for e.e.: 50 bar H2, chiral HPLC, (S)
[7] = Ketone hydrogenation, general procedure (vial); conditions: 2′-fluoroacetophenone; 0.1 mol % catalyst, 50 °C, 16 h, 50 bar H2, K2CO3, ethanol
[8] = Ketone hydrogenation, general procedure (vial); conditions: 2′-chloroacetophenone; 0.1 mol % catalyst, 50 °C, 16 h, 50 bar H2, K2CO3, ethanol
[9] = Ketone hydrogenation, general procedure (vial); conditions: 2′-methoxyacetophenone; 0.1 mol % catalyst, 50 °C, 16 h, 50 bar H2, K2CO3, ethanol
[10] = Ketone hydrogenation, general procedure (vial); conditions: cyclohexylphenylketone; 0.1 mol % catalyst, 50 °C, 16 h, 50 bar H2, K2CO3, ethanol
[11] = for Conversion (%) / TOF: acetophenone, gas uptake, 20 bar H2, 50 °C; for TOF: at 20% conversion
Method: The vessel was sealed and pressurised with hydrogen gas (5 bar) and vented. This was repeated twice. The degassed ethanol solution was added via an injection port and the vessel sealed and pressurised with hydrogen gas (20 bar) and vented. This was repeated twice. The pressure was set to 2 bar and the mixture heated to 50° C. at which time the pressure was increased to 20 bar and the experiment started. Gas uptake was monitored by reduction of the pressure in the burette. […] The vessel was cooled to room temperature, vented and the content concentrated to dryness and analysed by ^1H-NMR to confirm full conversion. The uptake curve was converted to conversion by dividing the gas uptake at a time-point by total uptake and multiplied by 100 to get percentage conversion. Substrate and product concentrations could be calculated, from which the turnover frequency (TOF) could be calculated. The TOF was reported at 20% conversion to minimise temperature influence of the vessel setup.

[(Rc,Sp)—N-2-picolynyl-1-(-2-bis(4-methoxy-3,5-dimethylphenyl)-phosphino)ferrocenylethylamine]-κN^1-κN^2-κ^P-tricarbonyl manganese (I) bromide [compound 2]
e.e. ([1]; 50 bar H2, chiral HPLC, (S)): 82% | e.e. ([2]; 50 bar H2, chiral HPLC, (S)): 80% | ee [3]: 76% | conversion to product (NMR analysis) ([4]; 50 bar H2, K2CO3, ethanol): 96% | ee ([4]; 50 bar H2, chiral HPLC, (S)): 70% | ee [5]: 90%

[(Rc,Sp)—N-(4-(dimethylamino)pyridine-2-methyl)-1-(˜2-bis(4-methoxy-3,5-dimethylphenyl)phosphino)ferrocenylethylamine]-κN^1-κN^2-κ^P-tricarbonyl manganese (I) bromide [compound 6]
Conversion ([6]; 0.01 mol % catalyst, 65 °C, 24 h, 50 bar H2): >99% | e.e. ([6]; 0.01 mol % catalyst, 65 °C, 24 h): 57% (S) | Conversion ([6]; 0.02 mol % catalyst, 60 °C, 16 h, 50 bar H2): >99% | e.e. ([6]; 0.02 mol % catalyst, 60 °C, 16 h): 51% (S) | Conversion ([6]; 0.1 mol % catalyst, 50 °C, 16 h, 50 bar H2, K2CO3, ethanol): >99% | Conversion (%) ([6]; vial method, 0.1 mol % catalyst, 2 h, 50 bar H2): 56.5% | TOF ([6]; vial method, 0.1 mol % catalyst, calculated after 2 h, 50 bar H2): 283 h⁻¹ | Conversion [7]: >99% | Conversion [8]: >99% | Conversion [9]: >99% | Conversion ([1]; 50 bar H2, K2CO3, ethanol): >99% | Conversion ([2]; 50 bar H2, K2CO3, ethanol): >99% | Conversion [10]: >99% | Conversion (%) ([11]; 0.05 mol % catalyst, 12 h): 100% | TOF ([11]; 0.05 mol % catalyst): 237 h⁻¹ | Conversion (%) ([11]; 0.1 mol % catalyst, ethanol, run to completion): 100% | TOF ([11]; 0.1 mol % catalyst): 230 h⁻¹ | turnover frequency (TOF) with 6 relative to 7 ([11]; hydrogenation of acetophenone, Table 2): at least 3.5 times
